Assay results from paper PMC5218480 (PLoS ONE, 2017).

Test system: MV-4-11 cells
Test: Gene expression microarray analysis (Affymetrix PrimeView) and GSEA
Format: cell-based, human
Set-up: RFU PODN (11730768_x_at) / Fold change /veh PODN (11730768_x_at) / RFU LINC00158 (11744669_a_at) / Fold change /veh LINC00158 (11744669_a_at) / RFU DUSP10 (11751237_a_at) / Fold change /veh DUSP10 (11751237_a_at) / RFU ID3 (11757404_x_at) / Fold change /veh ID3 (11757404_x_at) / RFU PLEKHG5 (11737974_s_at) / Fold change /veh PLEKHG5 (11737974_s_at) / RFU LRRC4B (11730491_at) / Fold change /veh LRRC4B (11730491_at) / RFU GIMAP4 (11747438_a_at) / Fold change /veh GIMAP4 (11747438_a_at) / RFU KRT8 (11758183_x_at) / Fold change /veh KRT8 (11758183_x_at) / RFU CNN1 (11734310_a_at) / Fold change /veh CNN1 (11734310_a_at) / RFU VPS37D (11726825_at) / Fold change /veh VPS37D (11726825_at) / RFU C10orf10 (11716522_x_at) / Fold change /veh C10orf10 (11716522_x_at) / RFU KIR2DL2 /// KIR2DL4 /// KIR2DL5A /// KIR2DL5B /// KIR2DS1 /// KIR2DS2 /// KIR2DS3 /// KIR2DS4 /// KIR3DL3 /// KIR3DL3 /// KIR3DS1 (11738374_at) / Fold change /veh KIR2DL2 /// KIR2DL4 /// KIR2DL5A /// KIR2DL5B /// KIR2DS1 /// KIR2DS2 /// KIR2DS3 /// KIR2DS4 /// KIR3DL3 /// KIR3DL3 /// KIR3DS1 (11738374_at) / RFU C1QL1 (11718748_at) / Fold change /veh C1QL1 (11718748_at) / RFU TMPRSS4 (11747572_a_at) / Fold change /veh TMPRSS4 (11747572_a_at) / RFU HAMP (11756126_x_at) / Fold change /veh HAMP (11756126_x_at) / RFU RNFT2 (11725882_a_at) / Fold change /veh RNFT2 (11725882_a_at) / RFU NR4A2 (11747474_a_at) / Fold change /veh NR4A2 (11747474_a_at) / RFU ABCC12 (11746883_a_at) / Fold change /veh ABCC12 (11746883_a_at) / RFU TMEM136 (11760407_x_at) / Fold change /veh TMEM136 (11760407_x_at) / RFU CLDN22 /// WWC2 (11732394_at) / Fold change /veh CLDN22 /// WWC2 (11732394_at) / RFU HLA-DPB1 (11760878_x_at) / Fold change /veh HLA-DPB1 (11760878_x_at) / RFU SPINT1 (11716480_a_at) / Fold change /veh SPINT1 (11716480_a_at) / RFU GAP43 (11754022_s_at) / Fold change /veh GAP43 (11754022_s_at) / RFU A4GNT (11735810_at) / Fold change /veh A4GNT (11735810_at) / RFU PRB3 (11715151_x_at) / Fold change /veh PRB3 (11715151_x_at) / RFU TUBB4B (11761932_at) / Fold change /veh TUBB4B (11761932_at) / RFU CAPN14 (11732068_a_at) / Fold change /veh CAPN14 (11732068_a_at) / RFU TMCC2 (11721928_a_at) / Fold change /veh TMCC2 (11721928_a_at) / RFU IRGQ (11745062_a_at) / Fold change /veh IRGQ (11745062_a_at) / RFU FAM174B (11720279_a_at) / Fold change /veh FAM174B (11720279_a_at) / RFU TMPRSS4 (11748680_a_at) / Fold change /veh TMPRSS4 (11748680_a_at) / RFU FAM212B (11763350_a_at) / Fold change /veh FAM212B (11763350_a_at) / RFU PLEKHG5 (11743358_a_at) / Fold change /veh PLEKHG5 (11743358_a_at) / RFU ZSCAN30 (11745921_a_at) / Fold change /veh ZSCAN30 (11745921_a_at) / RFU CMKLR1 (11741424_a_at) / Fold change /veh CMKLR1 (11741424_a_at) / RFU LOC101060620 /// MAPK8IP1 (11723275_at) / Fold change /veh LOC101060620 /// MAPK8IP1 (11723275_at) / RFU SPTSSB (11747773_x_at) / Fold change /veh SPTSSB (11747773_x_at) / RFU PRSS12 (11739890_at) / Fold change /veh PRSS12 (11739890_at) / RFU BIN1 (11741810_x_at) / Fold change /veh BIN1 (11741810_x_at) / RFU WNT11 (11732464_a_at) / Fold change /veh WNT11 (11732464_a_at) / RFU C10orf10 (11716521_a_at) / Fold change /veh C10orf10 (11716521_a_at) / RFU C5orf56 (11738089_at) / Fold change /veh C5orf56 (11738089_at) / RFU CYB561 (11721691_x_at) / Fold change /veh CYB561 (11721691_x_at) / RFU ANKRD19P (11752326_a_at) / Fold change /veh ANKRD19P (11752326_a_at) / RFU OR2T12 /// OR2T33 /// OR2T8 (11738714_s_at) / Fold change /veh OR2T12 /// OR2T33 /// OR2T8 (11738714_s_at) / RFU VCAN (11748164_a_at) / Fold change /veh VCAN (11748164_a_at) / RFU JSRP1 (11732532_at) / Fold change /veh JSRP1 (11732532_at) / RFU KRTAP10-11 (11738290_x_at) / Fold change /veh KRTAP10-11 (11738290_x_at) / RFU MYO3A (11730013_a_at) / Fold change /veh MYO3A (11730013_a_at) / RFU EBF3 (11725865_a_at) / Fold change /veh EBF3 (11725865_a_at) / RFU CAMK2N1 (11719241_x_at) / Fold change /veh CAMK2N1 (11719241_x_at) / RFU C5orf56 (11738088_a_at) / Fold change /veh C5orf56 (11738088_a_at) / RFU OLFML3 (11715873_a_at) / Fold change /veh OLFML3 (11715873_a_at) / RFU LOC100653217 /// NTM (11731650_a_at) / Fold change /veh LOC100653217 /// NTM (11731650_a_at) / RFU MAPK11 (11762145_a_at) / Fold change /veh MAPK11 (11762145_a_at) / RFU FIZ1 (11724087_x_at) / Fold change /veh FIZ1 (11724087_x_at) / RFU OASL (11726364_x_at) / Fold change /veh OASL (11726364_x_at) / RFU SOX15 (11748057_x_at) / Fold change /veh SOX15 (11748057_x_at) / RFU CD79A (11719716_a_at) / Fold change /veh CD79A (11719716_a_at) / RFU HIST1H1D (11736915_at) / Fold change /veh HIST1H1D (11736915_at) / RFU CASKIN2 (11723855_a_at) / Fold change /veh CASKIN2 (11723855_a_at) / RFU LOC730098 (11760151_x_at) / Fold change /veh LOC730098 (11760151_x_at) / RFU OR4N2 (11742367_at) / Fold change /veh OR4N2 (11742367_at) / RFU PRRT2 (11749266_a_at) / Fold change /veh PRRT2 (11749266_a_at) / RFU SNX32 (11753110_a_at) / Fold change /veh SNX32 (11753110_a_at) / RFU CDHR5 (11726645_a_at) / Fold change /veh CDHR5 (11726645_a_at) / RFU RCAN1 (11760418_a_at) / Fold change /veh RCAN1 (11760418_a_at) / RFU FAM167A (11723789_a_at) / Fold change /veh FAM167A (11723789_a_at) / RFU FAM26E (11764081_at) / Fold change /veh FAM26E (11764081_at) / RFU ISYNA1 (11749810_s_at) / Fold change /veh ISYNA1 (11749810_s_at) / RFU ACY1 (11761880_at) / Fold change /veh ACY1 (11761880_at) / RFU 11764098_at / Fold change /veh 11764098_at / RFU SAMD14 (11745864_x_at) / Fold change /veh SAMD14 (11745864_x_at) / RFU NPB (11741838_a_at) / Fold change /veh NPB (11741838_a_at) / RFU TMPRSS6 (11731388_a_at) / Fold change /veh TMPRSS6 (11731388_a_at) / RFU KRTAP10-2 (11738614_at) / Fold change /veh KRTAP10-2 (11738614_at) / RFU ARHGAP8 /// PRR5-ARHGAP8 (11727945_x_at) / Fold change /veh ARHGAP8 /// PRR5-ARHGAP8 (11727945_x_at) / RFU KRTAP5-7 /// NADSYN1 (11734609_at) / Fold change /veh KRTAP5-7 /// NADSYN1 (11734609_at) / RFU RASL12 (11751679_a_at) / Fold change /veh RASL12 (11751679_a_at) / RFU CDKN2B (11736163_a_at) / Fold change /veh CDKN2B (11736163_a_at) / RFU PRF1 (11729649_at) / Fold change /veh PRF1 (11729649_at) / RFU, ZNF638 /// ZNF638-IT1 / Fold change vs veh, ZNF638 /// ZNF638-IT1 / RFU, PANK3 / Fold change vs veh, PANK3 / RFU, SH3YL1 / Fold change vs veh, SH3YL1 / RFU, ZEB2 / Fold change vs veh, ZEB2 / RFU, NRIP1 / Fold change vs veh, NRIP1 / RFU, PTTG1IP / Fold change vs veh, PTTG1IP / RFU, CAPN2 / Fold change vs veh, CAPN2 / RFU, MED14 / Fold change vs veh, MED14 / RFU, SNORA58 / Fold change vs veh, SNORA58 / RFU, C1orf63 / Fold change vs veh, C1orf63 / RFU, LRRFIP1 / Fold change vs veh, LRRFIP1 / RFU, NDUFAF7 / Fold change vs veh, NDUFAF7 / RFU, SLC12A2 / Fold change vs veh, SLC12A2 / RFU, IBTK / Fold change vs veh, IBTK / RFU, ESF1 / Fold change vs veh, ESF1 / Fold change vs veh, TMEM50B / RFU, TAOK1 / Fold change vs veh, TAOK1 / RFU, ACBD3 / Fold change vs veh, ACBD3 / RFU, TMA16 / Fold change vs veh, TMA16 / RFU, RWDD3 / Fold change vs veh, RWDD3 / RFU, BCAT1 / Fold change vs veh, BCAT1 / RFU, EDEM3 / Fold change vs veh, EDEM3 / RFU, TMEM33 / Fold change vs veh, TMEM33 / RFU, WDR75 / Fold change vs veh, WDR75 / RFU, AHCTF1 / Fold change vs veh, AHCTF1 / RFU, TFRC / Fold change vs veh, TFRC / RFU, ZDHHC17 / Fold change vs veh, ZDHHC17 / RFU, NOM1 / Fold change vs veh, NOM1 / RFU, ARL8B / Fold change vs veh, ARL8B / RFU, ZBTB11 / Fold change vs veh, ZBTB11 / RFU, TAMM41 / Fold change vs veh, TAMM41 / RFU, KIAA1704 /// LOC100996395 / Fold change vs veh, KIAA1704 /// LOC100996395 / RFU, ING1 / Fold change vs veh, ING1 / RFU, TRMT61B / Fold change vs veh, TRMT61B / RFU, FUBP3 / Fold change vs veh, FUBP3 / RFU, TP53 / Fold change vs veh, TP53 / RFU, TNKS2 / Fold change vs veh, TNKS2 / RFU, ZFP14 / Fold change vs veh, ZFP14 / RFU, ACTR2 / Fold change vs veh, ACTR2 / RFU, PPP3R1 / Fold change vs veh, PPP3R1 / RFU, PIK3R1 / Fold change vs veh, PIK3R1 / RFU, HNRNPA1 / Fold change vs veh, HNRNPA1 / RFU, RNF170 / Fold change vs veh, RNF170 / RFU, ZNF28 / Fold change vs veh, ZNF28 / RFU, RNGTT / Fold change vs veh, RNGTT / RFU, OGT / Fold change vs veh, OGT / RFU, BRD1 / Fold change vs veh, BRD1 / RFU, MARS / Fold change vs veh, MARS / RFU, ZNF655 / Fold change vs veh, ZNF655 / RFU, FAHD1 / Fold change vs veh, FAHD1 / RFU, BDP1 / Fold change vs veh, BDP1 / RFU, LRRCC1 / Fold change vs veh, LRRCC1 / RFU, ARID1A / Fold change vs veh, ARID1A / RFU, ZNF146 / Fold change vs veh, ZNF146 / RFU, ZNF330 / Fold change vs veh, ZNF330 / RFU, GPN3 / Fold change vs veh, GPN3 / RFU, C9orf123 / Fold change vs veh, C9orf123 / RFU, N4BP2L2 / Fold change vs veh, N4BP2L2 / RFU, ARFIP1 / Fold change vs veh, ARFIP1 / RFU, FAM179B / Fold change vs veh, FAM179B / RFU, BCL10 / Fold change vs veh, BCL10 / RFU, UHRF1BP1L / Fold change vs veh, UHRF1BP1L / RFU, BET1 / Fold change vs veh, BET1 / RFU, CNOT2 / Fold change vs veh, CNOT2 / RFU, ZNF268 / Fold change vs veh, ZNF268 / Fold change vs veh, ZNF507 / RFU, DGCR2 / Fold change vs veh, DGCR2 / RFU, WDSUB1 / Fold change vs veh, WDSUB1 / Fold change vs veh, HSP90B1 /// MIR3652 / RFU, ADSS / Fold change vs veh, ADSS / RFU, GK / Fold change vs veh, GK / RFU, ZNF148 / Fold change vs veh, ZNF148 / RFU, TAF9 / Fold change vs veh, TAF9 / RFU, SLC1A5 / Fold change vs veh, SLC1A5 / RFU, SLMO2 / Fold change vs veh, SLMO2 / RFU, ABCC4 / Fold change vs veh, ABCC4 / RFU, LOC101060439 /// RAP1B / Fold change vs veh, LOC101060439 /// RAP1B / RFU, RFX7 / Fold change vs veh, RFX7 / RFU, GTPBP10 / Fold change vs veh, GTPBP10 / RFU, CNEP1R1 / Fold change vs veh, CNEP1R1 / RFU, BIVM-ERCC5 /// ERCC5 / Fold change vs veh, BIVM-ERCC5 /// ERCC5 / RFU, ILF3 / Fold change vs veh, ILF3 / RFU 11762660_at / Fold change /veh 11762660_at / RFU VCAN (11757783_s_at) / Fold change /veh VCAN (11757783_s_at) / RFU DDX43 (11728927_at) / Fold change /veh DDX43 (11728927_at) / RFU KRT8 (11758188_x_at) / Fold change /veh KRT8 (11758188_x_at) / RFU NKD1 (11759106_at) / Fold change /veh NKD1 (11759106_at) / RFU SRD5A1 (11742802_a_at) / Fold change /veh SRD5A1 (11742802_a_at) / RFU TPSAB1 /// TPSB2 (11721975_s_at) / Fold change /veh TPSAB1 /// TPSB2 (11721975_s_at) / RFU GSTM3 (11746129_a_at) / Fold change /veh GSTM3 (11746129_a_at) / RFU IL23R (11737362_x_at) / Fold change /veh IL23R (11737362_x_at) / RFU TMEM51 (11727254_a_at) / Fold change /veh TMEM51 (11727254_a_at) / RFU PIWIL2 (11732686_x_at) / Fold change /veh PIWIL2 (11732686_x_at) / RFU ORM1 (11744905_x_at) / Fold change /veh ORM1 (11744905_x_at) / RFU CCDC152 (11743942_at) / Fold change /veh CCDC152 (11743942_at) / RFU ECM1 (11717891_a_at) / Fold change /veh ECM1 (11717891_a_at) / RFU IL23R (11748794_a_at) / Fold change /veh IL23R (11748794_a_at) / RFU TNFAIP8L3 (11732012_x_at) / Fold change /veh TNFAIP8L3 (11732012_x_at) / RFU MBOAT4 (11741988_at) / Fold change /veh MBOAT4 (11741988_at) / RFU 11764193_at / Fold change /veh 11764193_at / RFU TMEM53 (11763286_at) / Fold change /veh TMEM53 (11763286_at) / RFU MAGEB2 (11727129_at) / Fold change /veh MAGEB2 (11727129_at) / RFU TMEM200A (11744735_a_at) / Fold change /veh TMEM200A (11744735_a_at) / RFU CCDC152 (11751479_a_at) / Fold change /veh CCDC152 (11751479_a_at) / RFU FAM211A (11726209_a_at) / Fold change /veh FAM211A (11726209_a_at) / RFU RGS16 (11746705_a_at) / Fold change /veh RGS16 (11746705_a_at) / RFU VCAN (11755009_s_at) / Fold change /veh VCAN (11755009_s_at) / RFU RHOB (11743442_s_at) / Fold change /veh RHOB (11743442_s_at) / RFU RGS16 (11720943_a_at) / Fold change /veh RGS16 (11720943_a_at) / RFU RGS16 (11720944_at) / Fold change /veh RGS16 (11720944_at) / RFU, VPS4B / Fold change vs veh, VPS4B / RFU, CREB1 / Fold change vs veh, CREB1 / RFU, DNAJC13 / Fold change vs veh, DNAJC13 / RFU, GNAQ / Fold change vs veh, GNAQ / RFU, CDK5R1 / Fold change vs veh, CDK5R1 / RFU, ZRANB3 / Fold change vs veh, ZRANB3 / RFU, CUL4A / Fold change vs veh, CUL4A / RFU, CCNY / Fold change vs veh, CCNY / RFU, UFL1 / Fold change vs veh, UFL1 / RFU, COG3 / Fold change vs veh, COG3 / RFU, DIAPH2 / Fold change vs veh, DIAPH2 / RFU, SKA2 / Fold change vs veh, SKA2 / RFU, AFF3 / Fold change vs veh, AFF3 / RFU, LMF1 / Fold change vs veh, LMF1 / RFU, IPO11 / Fold change vs veh, IPO11 / RFU, DFFB / Fold change vs veh, DFFB / RFU, FOXP1 / Fold change vs veh, FOXP1 / RFU, CARD8 / Fold change vs veh, CARD8 / RFU, STRN3 / Fold change vs veh, STRN3 / RFU, ADK / Fold change vs veh, ADK / RFU, RASSF2 / Fold change vs veh, RASSF2 / RFU, WIPF1 / Fold change vs veh, WIPF1 / RFU, LARP1B / Fold change vs veh, LARP1B / RFU, RASA1 / Fold change vs veh, RASA1 / RFU, RB1 / Fold change vs veh, RB1 / RFU, PPFIA1 / Fold change vs veh, PPFIA1 / RFU, MAT2A / Fold change vs veh, MAT2A / RFU, CCT5 / Fold change vs veh, CCT5 / RFU, WDR92 / Fold change vs veh, WDR92 / RFU, CUX1 / Fold change vs veh, CUX1 / RFU, TTC7A / Fold change vs veh, TTC7A / RFU, TMEM135 / Fold change vs veh, TMEM135 / RFU, DEPTOR / Fold change vs veh, DEPTOR / RFU, CPM / Fold change vs veh, CPM / RFU, DNAJB6 / Fold change vs veh, DNAJB6 / RFU, CACNA2D3 / Fold change vs veh, CACNA2D3 / RFU, DTX4 / Fold change vs veh, DTX4 / RFU, TFCP2 / Fold change vs veh, TFCP2 / RFU, GMCL1 /// GMCL1P1 / Fold change vs veh, GMCL1 /// GMCL1P1 / RFU, AEBP2 / Fold change vs veh, AEBP2 / RFU, SNHG1 /// SNORD22 /// SNORD25 /// SNORD26 /// SNORD27 /// SNORD28 /// SNORD29 /// SNORD31 / Fold change vs veh, SNHG1 /// SNORD22 /// SNORD25 /// SNORD26 /// SNORD27 /// SNORD28 /// SNORD29 /// SNORD31 / Fold change (Aza/veh), C12orf56 (ProbeSet 11735607_a_at) / Fold change (ACY-1035/veh), C12orf56 (ProbeSet 11735607_a_at) / Fold change (Aza/veh), FGFR1OP (ProbeSet 11751329_s_at) / Fold change (ACY-1035/veh), FGFR1OP (ProbeSet 11751329_s_at) / Fold change (Aza/veh), VPS36 (ProbeSet 11739960_a_at) / Fold change (ACY-1035/veh), VPS36 (ProbeSet 11739960_a_at) / RFU SYPL1 (11715823_x_at) / Fold change /veh SYPL1 (11715823_x_at) / RFU IGFBP7 (11715501_s_at) / Fold change /veh IGFBP7 (11715501_s_at) / RFU REEP3 (11722064_at) / Fold change /veh REEP3 (11722064_at) / RFU IGLL1 (11728026_x_at) / Fold change /veh IGLL1 (11728026_x_at): dose or concentration left out as unconfirmed
Conditions: ProbeSet 11723475_a_at; LIST B

Compound: Nc1ccc(-c2cccs2)cc1NC(=O)c1ccc2c(c1)cc(C1CC1)n2CCN1CCOCC1 [ACY-1035]
- Fold change vs veh, TRMT61B: 0.88
